Paper PMC9749896 (Bioorganic & medicinal chemistry letters, 2022)
pEC50: −log10 of the molar value.

How the values were obtained:
[1] = system: A431 (wt EGFR); settings: daily oral dosing at 50 mg/kg; cited from earlier work
[2] = system: EGFR^L858R/T790M/C797S models; settings: daily oral dosing at 50 mg/kg; cited from earlier work
[3] = system: Ba/F3 EGFR^L858R/T790M/C797S cells; experiment: cells; settings: Mus musculus, BaF3, read-out: cell EC50, Ba/F3 EGFR L858R/T790M/C797S
[4] = system: Ba/F3 EGFR^L858R/T790M cells; experiment: cells; settings: Mus musculus, BaF3, read-out: cell EC50, Ba/F3 EGFR L858R/T790M
[5] = system: Ba/F3 EGFR^L858R/T790M cells; settings: cited from earlier work
[6] = system: H1975 (EGFR^L858R/T790M); settings: daily oral dosing at 100 mg/kg; cited from earlier work

Which “efficacy in A431 (wt EGFR) model” value [1] does the source give for `CN1CCC(c2ccc(-c3ccc4c(c3)C(=O)N(C(C(=O)Nc3nccs3)c3cc(F)ccc3O)C4)cc2)CC1` (stereo not drawn) [Compound 4] here?
The value was “minimal effects”.

What about the “efficacy in triple mutant (EGFR L858R/T790M/C797S) models” value [2] of the same compound?
The value was “tumor regression”.

With `CN1CCC(c2ccc(-c3ccc4ncn(C(C(=O)Nc5nccs5)c5ccccc5)c(=O)c4c3)cc2)CC1` (stereo not drawn) [Compound 23] as the compound, how does the pEC50 [3] read?
Its pEC50 is 7.30.

And the pEC50 [4]?
Its pEC50 is 6.14.

Which “single-agent activity in Ba/F3 EGFR L858R/T790M antiproliferative assay” value [5] does the source give for `O=C(Nc1nccs1)C(c1cc(F)ccc1O)N1Cc2ccc(-c3ccc(N4CCNCC4)cc3)cc2C1=O` (stereo not drawn) [Compound 2] here?
Its value is “good single-agent activity”.

What about the H1975 model efficacy [6] of the same compound?
The H1975 model efficacy was “efficacy was observed”.
